Source: US20070111989A1, “Novel diazabicyclononene derivatives and use” (priority 2004, published 2007)

Target: T1, human recombinant renin (Homo sapiens, UniProt P00797)
T1 sequence (P00797 67-406): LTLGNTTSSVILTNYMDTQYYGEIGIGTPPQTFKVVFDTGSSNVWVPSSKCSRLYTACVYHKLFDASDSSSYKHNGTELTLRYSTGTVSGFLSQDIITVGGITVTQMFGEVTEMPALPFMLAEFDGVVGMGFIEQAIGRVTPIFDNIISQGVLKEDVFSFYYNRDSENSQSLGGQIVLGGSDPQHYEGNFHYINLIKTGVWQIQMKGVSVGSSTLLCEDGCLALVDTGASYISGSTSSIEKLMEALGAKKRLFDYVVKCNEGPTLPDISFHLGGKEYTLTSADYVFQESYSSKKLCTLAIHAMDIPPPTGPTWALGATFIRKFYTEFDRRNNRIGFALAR
Experiment: Inhibition of human recombinant renin, enzymatic in vitro assay with Ang I EIA detection
Type: biochemical
Settings: human recombinant renin 0.16 ng/mL, synthetic human angiotensin(1-14) 0.5 μM, 37° C. for 3 h; read-out: IC50 (concentration that inhibited the enzyme activity by 50%)
Description: Inhibition of Human Recombinant Renin by the Compounds of the Invention The enzymatic in vitro assay was performed in 384-well polypropylene plates (Nunc). The assay buffer consisted of 10 mM PBS (Gibco BRL) including 1 mM EDTA and 0.1% BSA. The incubates were composed of 50 μL per well of an enzyme mix and 2.5 μL of renin inhibitors in DMSO. The enzyme mix was premixed at 4° C. and consists of the following components: • human recombinant renin (0.16 ng/mL) • synthetic human angiotensin(1-14) (0.5 μM) • hydroxyquinoline sulfate (1 mM) The mixtures were then incubated at 37° C. for 3 h. To determine the enzymatic activity and its inhibition, the accumulated Ang I was detected by an enzyme immunoassay (EIA) in 384-well plates (Nunc). 5 μL of the incubates or standards were transferred to immuno plates which were previously coated with a covalent complex of Ang I and bovine serum albumin (Ang 1-BSA). 75 μL of Ang I-antibodies in essaybuffer above including 0.01% Tween 20 were added and a primary incubation made at 4° C. overnight. The plates were washed 3 times with PBS including 0.01% Tween 20, and then incubated for 2 h at rt with an antirabbit-peroxidase coupled antibody (WA 934, Amersham).

Compound	IC50
COCCOc1nccc(CN(C(=O)C2=C(c3ccc(CCCOc4c(F)ccc(F)c4Cl)cc3)C[C@@H]3CNC[C@H]2N3)C2CC2)c1C (racemic) [Example 1, (rac.)-(1R*,5S*)-7-{4-[3-(2-Chloro-3,6-difluorophenoxy)propyl]phenyl}-3,9-diazabicyclo[3.3.1]non-6-ene-6-carboxylic acid cyclopropyl-[2-(2-methoxy-ethoxy)-3-methylpyridin-4-ylmethyl]amide]	1 nM
COCCOc1cccc(CN(C(=O)C2=C(c3ccc(CCCOc4c(F)ccc(F)c4Cl)cc3)CC3CNCC2N3)C2CC2)c1C (racemic) [Example 2, (rac.)-(1R*,5S*)-7-{(4-[3-(2-Chloro-3,6-difluorophenoxy)propyl]phenyl}-3,9-diazabicyclo[3.3.1]non-6-ene-6-carboxylic acid cyclopropyl-[3-(2-methoxy-ethoxy)-2-methylbenzyl]amide]	1.05 nM
